Reference: patent publication US20250059159A1, “PLPRO INHIBITORS” (SHANGHAI SYNERGY PHARMACEUTICAL SCIENCES CO., LTD., priority 2021, published 2025)

Biological target: SARS-CoV-2 PLpro (Severe acute respiratory syndrome coronavirus 2 (2019-nCoV) (SARS-CoV-2), UniProt P0DTD1)
Experiment: PLpro enzymatic inhibition assay (IC50 value determination)
Type: biochemical
Settings: 60 min preincubation for covalent inhibitors, 10 min for non-covalent, read-out: Inhibition of SARS-CoV-2 PLpro IC50 range

## C#CCNC(=O)CNC(=O)CN(C1CCN(C(C)c2c(Cl)cccc2Cl)CC1)S(C)(=O)=O (stereo not drawn) [Compound 125, 2-(N-(1-(1-(2,6-dichlorophenyl)ethyl)piperidin-4-yl)methylsulfonamido)-N-(2-oxo-2-(prop-2-yn-1-ylamino)ethyl)acetamide]
  IC50: 100 to 1000 nM

## C#CCNC(=O)CNC(=O)CN(C1CCN(C(C)c2cccc3cccnc23)CC1)S(C)(=O)=O (stereo not drawn) [Compound 82, N-(2-oxo-2-(prop-2-yn-1-ylamino)ethyl)-2-(N-(1-(1-(quinolin-8-yl)ethyl)piperidin-4-yl)methylsulfonamido)acetamide]
  IC50: 100 to 1000 nM

## C#CCNC(=O)CNC(=O)CN(C1CCN(C(C)c2ccnc3ccccc23)CC1)S(C)(=O)=O (stereo not drawn) [Compound 85, N-(2-oxo-2-(prop-2-yn-1-ylamino)ethyl)-2-(N-(1-(1-(quinolin-4-yl)ethyl)piperidin-4-yl)methylsulfonamido)acetamide]
  IC50: 100 to 1000 nM

## COC(=O)/C=C/CNC(=O)CNC(=O)CN(C(=O)Cc1cccc(F)c1)C1CCN([C@H](C)c2cccc3ccccc23)CC1 [Compound 3, methyl (R,E)-4-(2-(2-(2-(3-fluorophenyl)-N-(1-(1-(naphthalen-1-yl)ethyl)piperidin-4-yl)acetamido)acetamido)acetamido)but-2-enoate]
  IC50: 100 to 1000 nM

## COC(=O)/C=C/CNC(=O)CNC(=O)CN(/C=C/C(=O)C(F)(F)F)C1CCN([C@H](C)c2cccc3ccccc23)CC1 [Compound 67, methyl (E)-4-(2-(2-((1-((R)-1-(naphthalen-1-yl)ethyl)piperidin-4-yl)((E)-4,4,4-trifluoro-3-oxobut-1-en-1-yl)amino)acetamido)acetamido)but-2-enoate]
  IC50: < 100 nM

## C#Cc1nnc(NC(=O)CN(C2CCN(C(C)c3cccc4ccccc34)CC2)S(C)(=O)=O)o1 (stereo not drawn) [Compound 170, N-(5-ethynyl-1,3,4-oxadiazol-2-yl)-2-(N-(1-(1-(naphthalen-1-yl)ethyl)piperidin-4-yl)methylsulfonamido)acetamide]
  IC50: 1000 to 10000 nM

## C#CCNC(=O)CNC(=O)[C@@H](C)N(C1CCN([C@H](C)c2cccc3ccccc23)CC1)S(C)(=O)=O [Compound 152, (R)-2-(N-(1-((R)-1-(naphthalen-1-yl)ethyl)piperidin-4-yl)methylsulfonamido)-N-(2-oxo-2-(prop-2-yn-1-ylamino)ethyl)propanamide]
  IC50: < 100 nM

## C#CCNC(=O)CNC(=O)CN(C1CCN([C@H](C)c2cccc3ccccc23)CC1F)S(C)(=O)=O (stereo partly drawn) [Compound 93, 2-(N-(3-fluoro-1-((R)-1-(naphthalen-1-yl)ethyl)piperidin-4-yl)methylsulfonamido)-N-(2-oxo-2-(prop-2-yn-1-ylamino)ethyl)acetamide]
  IC50: 100 to 1000 nM

## CCC(=O)N(CC(=O)NCC(=O)NC/C=C/C(=O)OC)C1CCN(C(C)c2cccc3ccccc23)CC1 (stereo not drawn) [Compound 15, methyl (E)-4-(2-(2-(N-(1-(1-(naphthalen-1-yl)ethyl)piperidin-4-yl)propionamido)acetamido)acetamido)but-2-enoate]
  IC50: < 100 nM

## C#CC(=O)NNC(=O)CN(C1CCN([C@H](C)c2cccc3ccccc23)CC1)S(C)(=O)=O [Compound 147, (R)—N-(1-(1-(naphthalen-1-yl)ethyl)piperidin-4-yl)-N-(2-oxo-2-(2-propioloylhydrazineyl)ethyl)methanesulfonamide]
  IC50: < 100 nM

## C#CCNC(=O)CNC(=O)CN(C1CCN(C(C)c2nccc3ccccc23)CC1)S(C)(=O)=O (stereo not drawn) [Compound 111, 2-(N-(1-(1-(isoquinolin-1-yl)ethyl)piperidin-4-yl)methylsulfonamido)-N-(2-oxo-2-(prop-2-yn-1-ylamino)ethyl)acetamide]
  IC50: 100 to 1000 nM

## C#CCNC(=O)CNC(=O)CN(C1CCN(C(C)c2ccccc2Cl)CC1)S(C)(=O)=O (stereo not drawn) [Compound 101, 2-(N-(1-(1-(2-chlorophenyl)ethyl)piperidin-4-yl)methylsulfonamido)-N-(2-oxo-2-(prop-2-yn-1-ylamino)ethyl)acetamide]
  IC50: < 100 nM
